We go through 47 molecules from patent publication US7884120B2, “2,4,5-trisubstituted imidazoles and their use as anti-microbial agents” (Lorus Therapeutics Inc., priority 2002, dated 2011).

Each structure is given as a SMILES string. Values after ≈ are worked out from the molar mass of the structure shown.

In general, MIC refers to the lowest concentration found to suppress growth. What is called inhibition is the drop in the measured response relative to a control, in per cent.

One assay relates to Candida albicans (ATCC 24433). The assay can be described thus: In vitro anti-fungal activity, microdilution against Candida albicans. The class given is cell-based. The conditions noted are these: ATCC24433, C. albicans ATCC 24433. The method, then: A microdilution method was used to determine the anti-fungal activity of different test compounds against Candida albicans (ATCC 24433) at 25 μg/ml. RPMI-1640 broth is recommended as the medium of choice for susceptibility testing of C. albicans (NCCLS, 2002; Document M27-A2) and was used in this study. The broth was buffered to pH 7.0 and then sterilized using a 250 ml vacuum driven disposable 0.45 um filtration system.
C. albicans was sub-cultured from a −80° C. stock onto Sabouraud dextrose agar and incubated for 24-48 hrs at 37° C. The fungi inoculum was prepared by picking five colonies of ˜1 mm in diameter from 24-48 hr old cultures. The colonies were then suspended in 5 ml of sterile normal saline (8.5 g/L NaCl; 0.85% saline) diluted 1:50 and further diluted 1:20 with medium to obtain two-fold inoculum (1-5×10^3 cfu/ml). […] The microtitre plates were then sealed in plastic bags and incubated at 35° C. for 24-48 hrs in an ambient air incubator with shaking at 250 RPM.
Inhibition of visible growth of C. albicans in the microtitre plate wells was assessed by the unaided eye and confirmed by OD600 reading. […] The MIC values of compounds with significant activity are also included.
`Fc1ccc(-c2nc(-c3c[nH]c4ccc(Br)cc34)[nH]c2-c2ccc(F)cc2)cc1` [Compound 8] registered an MIC of 8 µg/mL (≈ 17.8 µM).

The assay is the same for the next values; noted with them: ATCC24433, C. albicans ATCC 24433, compound 25 μg/ml, 24 h, read-out: Inhibition (%) after 24 h.
In the case of `Fc1ccc(-c2nc(-c3c[nH]c4ccc(Br)cc34)[nH]c2-c2ccc(F)cc2)cc1` [Compound 8], the inhibition at 25 µg/mL stood at 100%.

The assay is the same for the next values; noted with them: ATCC24433, C. albicans ATCC 24433, compound 25 μg/ml, 48 h, read-out: Inhibition (%) after 48 h.
Turning to `Fc1ccc(-c2nc(-c3c[nH]c4ccc(Br)cc34)[nH]c2-c2ccc(F)cc2)cc1` [Compound 8], the inhibition at 25 µg/mL is 100%.

In a further assay the test system is S. aureus, MRSA 1A-218, 1A-318, 1B-374, 1B-315, 1B-185, 1B387 and MSSA ATCC-6538, ATCC-29213. Kind of assay: MIC by standard microdilution method against S. aureus (MRSA and MSSA strains). The class given is cell-based. Conditions: Staphylococcus aureus; against all 8 strains of S. aureus tested except where indicated; microdilution, Ca-MHB, 35° C., 24 hr; read-out: MIC. The method, then: A standard microdilution method (NCCLS, 2000; Document M7-A5) was used to determine the minimum inhibitory concentrations (MICs) against S. aureus, methicillin-resistant strains (MRSA); 1A-218, 1A-318, 1B-374, 1B-315, 1B-185, 1B387 (Simor et al. 1999 Can Commun Dis Rep; 25:105-108) and methicillin-sensitive strains (MSSA); ATCC-6538 and ATCC-29213. The MICs of some compounds were also determined against other Gram-positive bacteria: Enterococcus faecium (ATCC 51559), Enterococcus faecalis (ATCC-51299, ATCC-29212) and Staphylococcus epidermidis (ATCC-35983).
Mueller-Hinton broth (MHB) is recommended as the medium of choice for susceptibility testing of commonly isolated, rapidly growing aerobic organisms such as the Gram-positive bacteria included in this study. A “cation-adjusted Mueller-Hinton broth” (Ca-MHB) was prepared by first preparing standard MHB from a dehydrated base as recommended by the manufacturer.
Single colonies from fresh agar plates of the different bacterial cultures were sub-cultured overnight in 3 ml of Tryptic soy broth (TSB) at 37° C. with shaking at 250 RPM. After 18-20 hours of incubation, the absorbance at λ=600 nm (OD600) were determined for each culture and adjusted to a final OD600=0.1 (4.2×10^7 cfu/ml). Bacterial suspensions were then diluted 1:200 in sterile Ca-MHB for the in vitro susceptibility test, with each well of the microtitre plate containing approximately 2×10^5 cfu/ml.
Stock solutions of the different test compounds were prepared at concentrations of 1,280 μg/ml, 640 μg/ml, or 320 μg/ml in 50% DMSO (dimethyl sulfoxide). Serial two-fold dilutions were then prepared in 50% DMSO (the working concentrations were 1:10 of the stock concentrations in 100 μl culture suspensions). The filled microtitre plates were sealed in plastic bags and incubated at 35° C. for 24 hr in an ambient air incubator with shaking at 250 RPM. MIC values were determined as the lowest concentration where complete inhibition of the visible bacterial growth was observed by the unaided eye and confirmed by the measurement of the optical density (OD600).
On the technique in general: Dilution methods test growth across graded concentrations, often in twofold steps.
As to `Cc1[nH]c2ccccc2c1-c1nc(-c2ccc(F)cc2)c(-c2ccc(F)cc2)[nH]1` [Compound 7], the MIC fell in the range of 4 to 16 µg/mL (≈ 10.4 to 41.5 µM).
On the same count and under the same terms, with `Cc1[nH]c2ccc([N+](=O)[O-])cc2c1-c1nc(-c2ccc(F)cc2)c(-c2ccccc2)[nH]1` [Compound 77] the figure was above 128 µg/mL; with `Fc1ccc(-c2nc(-c3c[nH]c4ccc(Br)cc34)[nH]c2-c2ccc(F)cc2)cc1` [Compound 8], 2 µg/mL (≈ 4.44 µM); with `COc1ccc(-c2nc(-c3cccc(Cl)c3Cl)c(-c3ccccc3)[nH]2)cc1O` [Compound 70], 8 µg/mL (≈ 19.5 µM).
The same measure, in the same setting: with `Clc1ccc(-c2nc(-c3c[nH]c4ccc(Br)cc34)[nH]c2-c2ccc(Cl)cc2)cc1` [Compound 20] the figure was 2 to 4 µg/mL (≈ 4.14 to 8.28 µM); with `COc1ccc(-c2nc(-c3ccc(O)cc3)[nH]c2-c2ccc(OC)cc2)cc1` [Compound 57], 16 µg/mL (≈ 43 µM).
Still for that read-out and setting: with `Ic1ccc2c3ccccc3c3[nH]c(-c4c[nH]c5ccccc45)nc3c2c1` [Compound 53] the figure was 1 µg/mL (≈ 2.18 µM); with `Oc1cccc(-c2nc(-c3ccc(-c4ccccc4)cc3)c(-c3ccccc3)[nH]2)c1` [Compound 62], 2 µg/mL (≈ 5.15 µM).
As for `c1ccc(-c2ccc(-c3[nH]c(-c4c[nH]c5ccccc45)nc3-c3ccccc3)cc2)cc1` [Compound 49], the MIC amounted to 4 µg/mL (≈ 9.72 µM).
On the same count and under the same terms, then `Cc1[nH]c2ccccc2c1-c1nc(-c2ccc(-c3ccccc3)cc2)c(-c2ccc(-c3ccccc3)cc2)[nH]1` [Compound 40], with above 128 µg/mL; and `O=C(O)c1ccc(-c2nc(-c3ccc(Br)cc3)c(-c3ccccc3)[nH]2)cc1` [Compound 59], with 32 µg/mL (≈ 76.3 µM).
Still for that read-out and setting: with `Cc1ccc(-c2nc(-c3c(C)[nH]c4ccccc34)[nH]c2-c2ccc(C)cc2)cc1` [Compound 23] the figure was 4 to 8 µg/mL (≈ 10.6 to 21.2 µM).
In the case of `Cc1[nH]c2ccccc2c1-c1nc(-c2cccs2)c(-c2cccs2)[nH]1` [Compound 25], the MIC is 32 to 64 µg/mL (≈ 88.5 to 177 µM).
The same measure, in the same setting: then `Clc1ccc(-c2nc(-c3c[nH]c4ccc(Br)cc34)[nH]c2-c2ccc(-c3ccccc3)cc2)cc1` [Compound 51], with 16 µg/mL (≈ 30.5 µM); and `Cc1[nH]c2ccccc2c1-c1nc(-c2ccncc2)c(-c2ccc(F)cc2)[nH]1` [Compound 27], with 32 to 64 µg/mL (≈ 86.9 to 174 µM).
Turning to `COc1cc(-c2nc(-c3ccc(Cl)cc3)c(-c3ccc(Cl)cc3)[nH]2)cc(OC)c1O` [Compound 66], the MIC was 2 µg/mL (≈ 4.53 µM).
In the case of `Fc1ccc(-c2[nH]c(-c3c[nH]c4ccccc34)nc2-c2ccccc2)cc1` [Compound 37], the MIC was above 128 µg/mL.
In the case of `COc1cccc(-c2nc(-c3c[nH]c4ccc(Br)cc34)[nH]c2-c2cccc(OC)c2)c1` [Compound 84], the minimum inhibitory concentration (MIC) was determined as 2 µg/mL (≈ 4.22 µM).
As for `Cc1[nH]c2ccccc2c1-c1nc(-c2cccc(Cl)c2)c(-c2cccc(Cl)c2)[nH]1` [Compound 21], the MIC lay within 8 to 16 µg/mL (≈ 19.1 to 38.2 µM).
Same read-out and setting: then `Cn1cc(-c2nc3c4ccccc4c4ccccc4c3[nH]2)c2ccccc21` [Compound 47], with above 128 µg/mL; and `O=C(O)c1ccc(-c2nc(-c3ccc(Br)cc3)c(-c3ccc(Br)cc3)[nH]2)cc1` [Compound 65], with 16 µg/mL (≈ 32.1 µM); and `Cc1[nH]c2ccc(N)cc2c1-c1nc(-c2ccc(F)cc2)c(-c2ccccc2)[nH]1` [Compound 75], with 32 µg/mL (≈ 83.7 µM).
Still for that read-out and setting: then `Brc1ccc2[nH]cc(-c3nc4c5cc(I)ccc5c5ccc(I)cc5c4[nH]3)c2c1` [Compound 52], with above 64 µg/mL; and `Ic1cccc(-c2nc(-c3c[nH]c4ccccc34)[nH]c2-c2cccc(I)c2)c1` [Compound 56], with 1 µg/mL (≈ 1.7 µM).
Consider `COc1ccc(-c2nc(-c3c(C)[nH]c4ccccc34)[nH]c2-c2ccc(OC)cc2)cc1` [Compound 9], for which the MIC was found to be 8 µg/mL (≈ 19.5 µM).
On the same count and under the same terms, with `Brc1ccc2[nH]cc(-c3nc(-c4ccc(Oc5ccccc5)cc4)c(-c4ccc(Oc5ccccc5)cc4)[nH]3)c2c1` [Compound 39] the figure was above 128 µg/mL; with `O=C(O)c1ccc(-c2nc(-c3ccccc3)c(-c3cccc4ccccc34)[nH]2)cc1` [Compound 60], 64 µg/mL (≈ 164 µM).
For the molecule `c1ccc(-c2[nH]c(-c3c[nH]c4ccccc34)nc2-c2ccc3ccccc3c2)cc1` [Compound 55], the MIC amounted to 2 µg/mL (≈ 5.19 µM).
As for `Fc1ccc(-c2[nH]c(-c3c[nH]c4ccc(Br)cc34)nc2-c2ccncc2)cc1` [Compound 28], the minimal inhibitory concentration (MIC) is 2 µg/mL (≈ 4.62 µM).
`Cc1ccc(-c2nc(-c3cccc(O)c3)[nH]c2-c2ccccc2Br)cc1` [Compound 64]: the MIC came out at 4 µg/mL (≈ 9.87 µM).
Still for that read-out and setting: with `Brc1ccc2[nH]cc(-c3nc(-c4cccs4)c(-c4cccs4)[nH]3)c2c1` [Compound 26] the figure was 2 µg/mL (≈ 4.69 µM); with `Cc1ccc(C)c(-c2nc(-c3cccc(O)c3)[nH]c2-c2ccccc2)c1` [Compound 71], 8 µg/mL (≈ 23.5 µM).
The same measure, in the same setting: then `Oc1cccc(-c2nc(-c3ccccc3)c(-c3cccc4ccccc34)[nH]2)c1` [Compound 61], with 8 µg/mL (≈ 22.1 µM); and `COc1ccc(-c2nc(-c3ccc(F)cc3)c(-c3ccccc3)[nH]2)c(OC)c1` [Compound 74], with above 128 µg/mL.
With `Cc1ccc([N+](=O)[O-])cc1-c1[nH]c(-c2cccc(O)c2)nc1-c1ccccc1` [Compound 67], the MIC is 16 µg/mL (≈ 43.1 µM).
Still for that read-out and setting: then `Oc1ccc(-c2nc(-c3ccc(-c4ccccc4)cc3)c(-c3ccccc3)[nH]2)cc1` [Compound 63], with 2 µg/mL (≈ 5.15 µM); and `Cc1[nH]c2ccccc2c1-c1nc(-c2ccccn2)c(-c2ccccn2)[nH]1` [Compound 15], with above 128 µg/mL.
On to `Oc1ccc(-c2nc(-c3cccc(Cl)c3Cl)c(-c3ccccc3)[nH]2)cc1O` [Compound 69], for which the MIC is 16 µg/mL (≈ 40.3 µM).
On the same count and under the same terms, with `Brc1ccc2[nH]cc(-c3nc(-c4ccccc4)c(-c4ccc(-c5ccccc5)cc4)[nH]3)c2c1` [Compound 48] the figure was 4 to 8 µg/mL (≈ 8.16 to 16.3 µM).
Same read-out and setting: then `COc1ccccc1-c1nc(-c2c(C)[nH]c3ccccc23)[nH]c1-c1ccccc1OC` [Compound 17], with 16 µg/mL (≈ 39.1 µM).
Still for that read-out and setting: then `Fc1ccc(-c2nc(-c3ccc4[nH]ccc4c3)[nH]c2-c2ccccc2)cc1` [Compound 76], with above 128 µg/mL; and `c1ccc(-c2[nH]c(-c3c[nH]c4ccccc34)nc2-c2cccc3ccccc23)cc1` [Compound 54], with 2 to 4 µg/mL (≈ 5.19 to 10.4 µM); and `COc1ccc(-c2nc(-c3ccccc3)c(-c3ccccc3)[nH]2)c(OC)c1` [Compound 73], with above 128 µg/mL.
With `Cc1[nH]c2ccccc2c1-c1nc(-c2ccc(Oc3ccccc3)cc2)c(-c2ccc(Oc3ccccc3)cc2)[nH]1` [Compound 38], the MIC is above 128 µg/mL.
Same read-out and setting: with `O=C(O)c1ccc(-c2nc(-c3ccc4c(c3)-c3cc(-c5[nH]c(-c6ccc(C(=O)O)cc6)nc5-c5ccccc5)ccc3C4=O)c(-c3ccccc3)[nH]2)cc1` [Compound 72] the figure was 0.5 to 2 µg/mL (≈ 0.709 to 2.84 µM); with `Brc1ccc2[nH]cc(-c3nc(-c4ccccc4)c(-c4ccc(N5CCCCC5)cc4)[nH]3)c2c1` [Compound 50], above 64 µg/mL; with `Oc1ccc(-c2nc(-c3ccc(Br)cc3)c(-c3ccccc3)[nH]2)cc1` [Compound 58], 4 µg/mL (≈ 10.2 µM).

A further assay concerns MRSA 1B-387. Kind of assay: In vivo anti-bacterial activity, ICR mice inoculated I.P. with MRSA, oral treatment. The conditions noted are these: Staphylococcus aureus. As for the experimental part:
For in vivo studies, groups of 5-10 female ICR mice (6-7 weeks) were inoculated intraperitonially with 3-8×10^7 CFU MRSA 1B-387 per mouse in 400 μl of 5% mucin. The test compounds at concentrations of 50 or 100 mg/kg were administered orally immediately after the bacterial inoculation and again 3 hours later. The selected dosages were administered twice daily throughout the experiment. The efficacy of the treatment was evaluated by comparison of mortality between the experimental and control groups (Table 5).
Molecule `Fc1ccc(-c2nc(-c3c[nH]c4ccc(Br)cc34)[nH]c2-c2ccc(F)cc2)cc1` [Compound 8] had a responders at 100 mg/kg of 20%.

Still in this assay, the particulars now being: Staphylococcus aureus, read-out: Survival %.
Regarding `Fc1ccc(-c2nc(-c3c[nH]c4ccc(Br)cc34)[nH]c2-c2ccc(F)cc2)cc1` [Compound 8], the responders at 100 mg/kg was found to be 20%.
